Measurements reported in ChEMBL document CHEMBL4382216, “Asymmetric synthesis and biological evaluation of imidazole- and oxazole-containing synthetic lipoxin A4 mimetics (sLXms)” (Eur J Med Chem, 2019).
One block for each compound: values may come before it. Activity calls are given as the source filed them. No cut-off for these calls is given here.

How the values were obtained:
[1] = molecular target: T1, N-formyl peptide receptor 2 (Homo sapiens) (UniProt P25090); assay: Agonist activity at ALX/FPR2 in human THP1 cells harboring NF-kB-Luc assessed as inhibition of LPS-induced NFkB signalling activation by measuring IFNgamma secretion at 10^-6 M pretreated for 30 mins followed by LPS stimulation for 24 hrs by electrochemiluminescence assay (reference value: 100%); format: cell-based; set-up: scale not given: the % may be the effect or the level left
T1 sequence (whole entry): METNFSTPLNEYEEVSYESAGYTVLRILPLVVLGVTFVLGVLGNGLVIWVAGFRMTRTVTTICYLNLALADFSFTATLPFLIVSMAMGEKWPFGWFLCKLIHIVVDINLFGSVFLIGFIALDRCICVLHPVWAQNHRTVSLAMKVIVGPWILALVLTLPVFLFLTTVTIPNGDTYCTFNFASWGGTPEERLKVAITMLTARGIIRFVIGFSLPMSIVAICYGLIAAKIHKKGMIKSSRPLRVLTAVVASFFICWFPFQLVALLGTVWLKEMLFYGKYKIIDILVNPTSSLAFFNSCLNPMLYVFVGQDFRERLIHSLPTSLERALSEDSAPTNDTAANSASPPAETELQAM

THP-1 [2] = assay: Cytotoxicity against human THP1 cells harboring NFkB-Luc assessed as LDH release at 10'6 M after 24 hrs by spectrophotometric method relative to control; format: cell-based; conditions: thp-1, 24 h
Homo sapiens [3] = species on record: Homo sapiens; assay: Activation of Luc-fused NFkB (unknown origin) expressed in non-stimulated human THP1 cells assessed as relative luminescence unit at 10^-6 M after 24 hrs by luciferase reporter gene assay (reference value: 100%); format: cell-based
Mus musculus [4] = assay: (§1) Anti-inflammatory activity in zymosan-induced C57BL/6J mouse peritonitis model assessed as PMN leukocytes level in peritoneal cavity at 25 ug, ip pretreated for 1 hr followed by zymosan treatment and redosing of test compound at 1 hr post zymosan addition and measured 4 hrs post zymosan addition by flow cytometry (reference value: 100%); format: functional
[5] = molecular target: T1, N-formyl peptide receptor 2 (Homo sapiens); assay: Agonist activity at ALX/FPR2 in human THP1 cells harboring NF-kB-Luc assessed as inhibition of LPS-induced NFkB signalling activation by measuring TNFalpha secretion at 10^-6 M pretreated for 30 mins followed by LPS stimulation for 24 hrs by electrochemiluminescence assay (reference value: 100%); format: cell-based; set-up: scale not given: the % may be the effect or the level left
[6] = molecular target: T1, N-formyl peptide receptor 2 (Homo sapiens); assay: Agonist activity at ALX/FPR2 in human THP1 cells harboring NF-kB-Luc assessed as inhibition of LPS-induced NFkB signalling activation by measuring NF-kB activation level at 10^-6 M pretreated for 30 mins followed by LPS stimulation for 24 hrs by luciferase reporter gene assay; format: cell-based; set-up: scale not given: the % may be the effect or the level left
[7] = molecular target: T1, N-formyl peptide receptor 2 (Homo sapiens); assay: Agonist activity at ALX/FPR2 in human THP1 cells harboring NF-kB-Luc assessed as inhibition of LPS-induced NFkB signalling activation by measuring IL-1beta secretion at 10^-6 M pretreated for 30 mins followed by LPS stimulation for 24 hrs by electrochemiluminescence assay (reference value: 100%); format: cell-based; set-up: scale not given: the % may be the effect or the level left
[8] = molecular target: T1, N-formyl peptide receptor 2 (Homo sapiens); assay: Agonist activity at ALX/FPR2 in human THP1 cells harboring NF-kB-Luc assessed as inhibition of LPS-induced NFkB signalling activation by measuring IL-12p70 secretion at 10^-6 M pretreated for 30 mins followed by LPS stimulation for 24 hrs by electrochemiluminescence assay (reference value: 100%); format: cell-based; set-up: scale not given: the % may be the effect or the level left
Mus musculus [9] = assay: as §1, with “total cell count” for “PMN leukocytes level”; format: functional
[10] = molecular target: T1, N-formyl peptide receptor 2 (Homo sapiens); assay: Agonist activity at ALX/FPR2 in human THP1 cells harboring NF-kB-Luc assessed as inhibition of LPS-induced NFkB signalling activation by measuring IL-6 secretion at 10^-6 M pretreated for 30 mins followed by LPS stimulation for 24 hrs by electrochemiluminescence assay (reference value: 100%); format: cell-based; set-up: scale not given: the % may be the effect or the level left
THP-1 [11] = assay: Cytotoxicity against human THP1 cells harboring NFkB-Luc assessed as LDH release at 10'8 M after 24 hrs by spectrophotometric method relative to control; format: cell-based; conditions: thp-1, 24 h
[12] = molecular target: T2, N-formyl peptide receptor 2 (Homo sapiens, UniProt P25090); assay: Agonist activity at ALX/FPR2 in human THP1 cells harboring NF-kB-Luc assessed as inhibition of LPS-induced NFkB signalling activation by measuring reduction in IL-12p70 secretion pretreated for 30 mins followed by LPS stimulation for 24 hrs by electrochemiluminescence assay; format: cell-based; conditions: read-out: IC50
T2 sequence (P25090 whole entry): T1 sequence (whole entry)

THP-1 [13] = assay: Cytotoxicity against human THP1 cells harboring NFkB-Luc assessed as LDH release at 10'7 M after 24 hrs by spectrophotometric method relative to control; format: cell-based; conditions: thp-1, 24 h
Mus musculus [14] = assay: as §1, with “as total cell count” for “as PMN leukocytes level”, “at 150 ng,” for “at 25 ug,”, “for 30 mins” for “for 1 hr”; format: functional
Homo sapiens [15] = species on record: Homo sapiens; assay: Activation of Luc-fused NFkB (unknown origin) expressed in non-stimulated human THP1 cells assessed as relative luminescence unit at 10^-12 M after 24 hrs by luciferase reporter gene assay (reference value: 100%); format: cell-based
[16] = molecular target: T2, N-formyl peptide receptor 2; assay: Agonist activity at ALX/FPR2 in human THP1 cells harboring NF-kB-Luc assessed as inhibition of LPS-induced NFkB signalling activation pretreated for 30 mins followed by LPS stimulation for 24 hrs by luciferase reporter gene assay; format: cell-based
THP-1 [17] = assay: Cytotoxicity against human THP1 cells harboring NFkB-Luc assessed as LDH release at 10'12 M after 24 hrs by spectrophotometric method relative to control; format: cell-based; conditions: thp-1, 24 h
Homo sapiens [18] = species on record: Homo sapiens; assay: Activation of Luc-fused NFkB (unknown origin) expressed in non-stimulated human THP1 cells assessed as relative luminescence unit at 10^-8 M after 24 hrs by luciferase reporter gene assay (reference value: 100%); format: cell-based
[19] = molecular target: T2, N-formyl peptide receptor 2; assay: Agonist activity at ALX/FPR2 in human THP1 cells harboring NF-kB-Luc assessed as inhibition of LPS-induced NFkB signalling activation by measuring reduction in TNFalpha secretion pretreated for 30 mins followed by LPS stimulation for 24 hrs by electrochemiluminescence assay; format: cell-based; conditions: read-out: IC50
THP-1 [20] = assay: Cytotoxicity against human THP1 cells harboring NFkB-Luc assessed as LDH release at 10'10 M after 24 hrs by spectrophotometric method relative to control; format: cell-based; conditions: thp-1, 24 h
Homo sapiens [21] = species on record: Homo sapiens; assay: Activation of Luc-fused NFkB (unknown origin) expressed in non-stimulated human THP1 cells assessed as relative luminescence unit at 10^-9 M after 24 hrs by luciferase reporter gene assay (reference value: 100%); format: cell-based
[22] = molecular target: T2, N-formyl peptide receptor 2; assay: Agonist activity at ALX/FPR2 in human THP1 cells harboring NF-kB-Luc assessed as inhibition of LPS-induced NFkB signalling activation by measuring reduction in IL-6 secretion pretreated for 30 mins followed by LPS stimulation for 24 hrs by electrochemiluminescence assay; format: cell-based; conditions: read-out: IC50
THP-1 [23] = assay: Cytotoxicity against human THP1 cells harboring NFkB-Luc assessed as LDH release at 10'9 M after 24 hrs by spectrophotometric method relative to control; format: cell-based; conditions: thp-1, 24 h
[24] = molecular target: T2, N-formyl peptide receptor 2; assay: Agonist activity at ALX/FPR2 in human THP1 cells harboring NF-kB-Luc assessed as inhibition of LPS-induced NFkB signalling activation by measuring reduction in IL-1beta secretion pretreated for 30 mins followed by LPS stimulation for 24 hrs by electrochemiluminescence assay; format: cell-based
Mus musculus [25] = assay: as §1, with “at 50 ng,” for “at 25 ug,”, “for 30 mins” for “for 1 hr”; format: functional
Homo sapiens [26] = species on record: Homo sapiens; assay: Activation of Luc-fused NFkB (unknown origin) expressed in non-stimulated human THP1 cells assessed as relative luminescence unit at 10^-10 M after 24 hrs by luciferase reporter gene assay (reference value: 100%); format: cell-based
[27] = molecular target: T2, N-formyl peptide receptor 2; assay: Agonist activity at ALX/FPR2 in human THP1 cells harboring NF-kB-Luc assessed as inhibition of LPS-induced NFkB signalling activation by measuring reduction in IFNgamma secretion pretreated for 30 mins followed by LPS stimulation for 24 hrs by electrochemiluminescence assay; format: cell-based; conditions: read-out: IC50
HEK293 = assay: Induction of intracellular calcium accumulation in HEK293 cells at 0.01 nM to 100 nM by Fluo-4 dye based fluorescence spectrophotometric assay; format: functional, cell-based; conditions: Homo sapiens
Mus musculus [28] = assay: as §1, with “as total cell count” for “as PMN leukocytes level”, “at 50 ng,” for “at 25 ug,”, “for 30 mins” for “for 1 hr”; format: functional
THP-1 [29] = assay: Cytotoxicity against human THP1 cells harboring NFkB-Luc assessed as LDH release at 10'11 M after 24 hrs by spectrophotometric method relative to control; format: cell-based; conditions: thp-1, 24 h
Homo sapiens [30] = species on record: Homo sapiens; assay: Activation of Luc-fused NFkB (unknown origin) expressed in non-stimulated human THP1 cells assessed as relative luminescence unit at 10^-11 M after 24 hrs by luciferase reporter gene assay (reference value: 100%); format: cell-based
Homo sapiens [31] = species on record: Homo sapiens; assay: Activation of Luc-fused NFkB (unknown origin) expressed in non-stimulated human THP1 cells assessed as relative luminescence unit at 10^-7 M after 24 hrs by luciferase reporter gene assay (reference value: 100%); format: cell-based
Mus musculus [32] = assay: as §1, with “at 150 ng,” for “at 25 ug,”, “for 30 mins” for “for 1 hr”; format: functional

Activity [1]: 45.1% | Activity [5]: 58.1% | Activity [6]: 53.2% | Activity [7]: 13.6% | Activity [8]: 62.6% | Activity [10]: 1.5%
SMILES: C[C@@H]1C[C@H]2[C@@H]3CCC4=CC(=O)C=C[C@]4(C)[C@@]3(F)[C@@H](O)C[C@]2(C)[C@@]1(O)C(=O)CO [DEXAMETHASONE]
fold change (FC) (THP-1 [2]): 1.3 | Activity (Homo sapiens [3]): 1.6% | Emax (Mus musculus [4]): 51.5% | Emax (Mus musculus [9]): 46.7%

IC50 [12]: 5.1 nM | IC50 [16]: 1 nM | IC50 [19]: 5.6 nM | IC50 [22]: 76.6 nM | IC50 [24]: Not Active | IC50 [27]: 4.4 nM
SMILES: CCCCC[C@@H](O)c1c(/C=C/[C@@H](O)[C@@H](O)CCCC(=O)OC)nc(C)n1C
fold change (FC) (THP-1 [11]): 0.9 | fold change (FC) (THP-1 [13]): 0.9 | Emax (Mus musculus [14]): 30.4% | Activity (Homo sapiens [15]): 2% | fold change (FC) (THP-1 [2]): 1.1 | fold change (FC) (THP-1 [17]): 1 | Activity (Homo sapiens [18]): 2.1% | Activity (Homo sapiens [3]): 2% | fold change (FC) (THP-1 [20]): 0.9 | Activity (Homo sapiens [21]): 2.1% | fold change (FC) (THP-1 [23]): 0.8 | Emax (Mus musculus [25]): 51.6% | Activity (Homo sapiens [26]): 2.3% | Activity (HEK293): inactive | Emax (Mus musculus [28]): 57.9% | fold change (FC) (THP-1 [29]): 0.9 | Activity (Homo sapiens [30]): 2.1% | Activity (Homo sapiens [31]): 2.5% | Emax (Mus musculus [32]): 32.5%
